The text below walks through data of paper PMC9785542, “Discovery of 1-Benzhydryl-Piperazine-Based HDAC Inhibitors with Anti-Breast Cancer Activity: Synthesis, Molecular Modeling, In Vitro and In Vivo Biological Evaluation” (Pharmaceutics, 2022).

Where two headings read alike, the source gives them in different places.

Data set [1] relates to HDAC6. The following applies: Figure 2; cited from earlier work.
In data set [2] the target is T1, Human recombinant N-ter-GST-HDAC-6 (Homo sapiens, UniProt Q9UBN7).
T1 sequence (Q9UBN7 1-1215): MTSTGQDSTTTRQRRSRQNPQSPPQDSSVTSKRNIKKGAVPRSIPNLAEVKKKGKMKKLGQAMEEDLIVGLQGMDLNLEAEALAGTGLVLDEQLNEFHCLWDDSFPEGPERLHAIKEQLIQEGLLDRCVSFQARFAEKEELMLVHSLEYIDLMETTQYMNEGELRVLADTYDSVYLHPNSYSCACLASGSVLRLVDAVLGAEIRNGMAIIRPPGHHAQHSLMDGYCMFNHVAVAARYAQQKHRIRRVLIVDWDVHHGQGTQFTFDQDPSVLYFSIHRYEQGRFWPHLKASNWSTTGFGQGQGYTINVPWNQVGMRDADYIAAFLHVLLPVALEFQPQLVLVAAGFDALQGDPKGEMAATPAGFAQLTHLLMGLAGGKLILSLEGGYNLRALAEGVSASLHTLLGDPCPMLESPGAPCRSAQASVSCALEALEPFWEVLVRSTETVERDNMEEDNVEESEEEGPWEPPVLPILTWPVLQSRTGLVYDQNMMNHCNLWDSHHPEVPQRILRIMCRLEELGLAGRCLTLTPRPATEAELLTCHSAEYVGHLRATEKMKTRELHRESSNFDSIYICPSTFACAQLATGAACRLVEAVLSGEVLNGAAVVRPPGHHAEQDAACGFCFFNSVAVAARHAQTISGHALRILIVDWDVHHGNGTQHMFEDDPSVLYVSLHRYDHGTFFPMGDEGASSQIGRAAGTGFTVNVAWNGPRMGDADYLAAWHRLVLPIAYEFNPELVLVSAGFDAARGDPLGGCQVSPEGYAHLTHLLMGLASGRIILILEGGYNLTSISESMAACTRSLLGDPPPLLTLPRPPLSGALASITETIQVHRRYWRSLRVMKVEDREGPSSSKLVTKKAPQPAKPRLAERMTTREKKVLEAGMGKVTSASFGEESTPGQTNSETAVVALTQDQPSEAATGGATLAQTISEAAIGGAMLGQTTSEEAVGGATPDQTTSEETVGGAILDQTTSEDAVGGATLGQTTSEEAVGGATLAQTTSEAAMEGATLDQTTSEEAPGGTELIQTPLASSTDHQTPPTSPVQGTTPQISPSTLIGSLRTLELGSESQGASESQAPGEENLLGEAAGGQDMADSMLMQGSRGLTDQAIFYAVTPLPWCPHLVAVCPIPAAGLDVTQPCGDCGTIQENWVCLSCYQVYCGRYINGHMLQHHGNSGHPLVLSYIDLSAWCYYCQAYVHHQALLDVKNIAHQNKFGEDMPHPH
Put plainly: HDAC-Glo I/II bioluminogenic enzyme assay, HDAC6. Type of data set: biochemical. Also noted: GST (N); purchased BPS Bioscience 50006.

Data set [3] addresses T2, Human recombinant C-ter-His-FLAG-HDAC1 (Homo sapiens, UniProt Q13547).
T2 construct: His (C); FLAG (C); purchased BPS Bioscience 50051
Put plainly: HDAC-Glo I/II bioluminogenic enzyme assay, HDAC1. It counts as biochemical. To be noted: mean ± SD of three independent experiments; read-out: HDAC Inhibition, IC50 ± SD, HDAC1.

The target of data set [4] is T3, Human recombinant HDAC-3/NcoR2 (Homo sapiens, UniProt O15379). Put plainly: HDAC-Glo I/II bioluminogenic enzyme assay, HDAC3. Type of data set: biochemical. Also noted: purchased BPS Bioscience 50003. The following applies: mean ± SD of three independent experiments; read-out: HDAC Inhibition, IC50 ± SD, HDAC3.
T3 sequence (O15379 whole entry): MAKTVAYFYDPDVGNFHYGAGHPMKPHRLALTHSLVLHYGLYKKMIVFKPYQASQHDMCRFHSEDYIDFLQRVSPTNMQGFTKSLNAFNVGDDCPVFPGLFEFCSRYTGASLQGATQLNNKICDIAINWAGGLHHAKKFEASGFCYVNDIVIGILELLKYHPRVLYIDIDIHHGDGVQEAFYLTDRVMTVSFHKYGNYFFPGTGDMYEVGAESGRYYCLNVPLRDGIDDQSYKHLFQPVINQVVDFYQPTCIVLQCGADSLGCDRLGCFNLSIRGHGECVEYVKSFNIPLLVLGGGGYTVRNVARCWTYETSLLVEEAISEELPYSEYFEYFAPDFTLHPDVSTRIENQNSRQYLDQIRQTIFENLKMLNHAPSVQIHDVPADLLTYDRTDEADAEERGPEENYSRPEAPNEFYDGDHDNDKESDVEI
T3 sequence (Q9Y618 395-489 partner limits assumed): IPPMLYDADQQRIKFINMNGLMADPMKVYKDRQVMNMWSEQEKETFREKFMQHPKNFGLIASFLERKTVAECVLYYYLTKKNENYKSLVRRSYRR
Data set [5] concerns the target T4, Human recombinant C-terminal His-tag-HDAC8 (Homo sapiens, UniProt Q9BY41).
T4 construct: His (C); purchased BPS Bioscience 50008
T4 sequence (Q9BY41 1-377): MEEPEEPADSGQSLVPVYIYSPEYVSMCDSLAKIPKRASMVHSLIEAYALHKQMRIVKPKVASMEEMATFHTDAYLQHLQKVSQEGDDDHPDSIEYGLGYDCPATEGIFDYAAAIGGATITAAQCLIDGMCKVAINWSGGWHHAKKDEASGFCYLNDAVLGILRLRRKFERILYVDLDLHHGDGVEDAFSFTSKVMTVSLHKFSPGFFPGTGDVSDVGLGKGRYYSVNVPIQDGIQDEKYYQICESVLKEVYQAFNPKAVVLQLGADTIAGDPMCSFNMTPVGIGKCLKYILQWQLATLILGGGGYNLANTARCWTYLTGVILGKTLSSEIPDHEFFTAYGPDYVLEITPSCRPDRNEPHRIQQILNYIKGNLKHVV
Put plainly: HDAC-Glo I/II bioluminogenic enzyme assay, HDAC8. Type of data set: biochemical. To be noted: mean ± SD of three independent experiments; read-out: HDAC Inhibition, IC50 ± SD, HDAC8.

Data set [6] relates to MDA-MB-231 tumor spheres. The experiment in a line: 3D tumor sphere model, MTT and imaging. It counts as cell-based, human. To be noted: for tumor sphere viability: 50 µM, 72 h, formed spheres, MTT. On the procedure:
MDA-MB-231 cells were seeded at a cell density of 1000 c/w in 100 μL of DMEM containing 10% FCS in a low-attachment NunclonSphera 96-well ultra-low attachment plate (Thermo Scientific Nunc™, Rochester, NY, USA), to form multicellular tumor spheres, for 4 days. The formation and growth of tumor spheres were examined and imaged with an Olympus CKX53 microscope, using a 10× objective. MDA-MB-231 tumor spheres were treated by carefully adding 50 μL of the medium with fresh nutrient medium for control spheres or with compound-supplemented medium (50 μM) for treated spheres for another 72 h. The cytotoxicity of compounds toward the MDA-MB-231 tumor spheres was investigated by MTT assay.
The formation and growth of tumor spheroids were examined and imaged with an Olympus CKX53 microscope, using 4x objective. The cytotoxicity of compounds toward the MDA-MB-231 tumor spheroids was investigated by MTT assay.

The test system of data set [7] is MDA-MB-231 cells. The experiment in a line: Cell viability (MTT) assay, MDA-MB-231. It counts as cell-based, human. The following applies: Homo sapiens, MDA-MB-231, 48 h, read-out: Cytotoxic activity IC50 ± SD, MDA-MB-231. How it is done: (§1) Human breast adenocarcinoma cells (MCF-7, ATCC® HTB-22™) and triple-negative breast cancer cells (MDA-MB-231, ATCC® HTB-26™) were obtained from the American Type Culture Collection (Rockville, MD, USA). Cells were maintained as a monolayer culture in DMEM:Ham’s 12 (1:1) medium (Sigma-Aldrich, St. Louis, MO, USA) supplemented with penicillin (192 U/mL), streptomycin (200 µg/mL), and 10% of heat-inactivated fetal calf serum (FCS). Cells were grown at 37 °C in 5% CO2 and humidified air atmosphere, by twice weekly subculture.
(§2) Cytotoxic activity of synthesized 1-benzhydryl-piperazine-based HDAC inhibitors was assessed on MDA-MB-231 and MCF-7 cells using an MTT assay. MDA-MB-231 (5 × 10^3 cells/well) and MCF-7 (5 × 10^3 cells/well) were treated with synthesized compounds in six different concentrations (100, 50, 25, 12.5, 6.25, and 3.13 μM), and each concentration was added in five replicates. MTT solution (3-(4,5-dimethylthiazol-2-yl)-2,5-diphenyltetrazolium bromide) (Sigma-Aldrich, St. Louis, USA) was added to each well (20 µL) after 48 h. After 4 h of incubation, 100 μL of 10% SDS was added in each well and incubated at 37 °C. On the next day, the absorbance at 570 nm was recorded. The ratio of absorbance (570 nm) values between treated and control cells multiplied by 100 was used to calculate cell survival (%). The concentration of synthesized HDAC inhibitors that reduced cell viability by 50% was defined as the IC50 value, and was compared to the vehicle control.

Data set [8] relates to MCF-7 cells. The experiment in a line: Cell viability (MTT) assay, MCF-7. Type of data set: cell-based. To be noted: Homo sapiens, MCF7, 48 h, read-out: Cytotoxic activity IC50 ± SD, MCF-7. How it is done:
as §1, §2

Data set [9] relates to MDA-MB-231 cells. The experiment in a line: Apoptosis assay, Annexin V-FITC/7-AAD flow cytometry. It counts as cell-based, human. To be noted: IC50 concentration. How it is done:
Examined breast cancer cells (MDA-MB-231) were stained with annexin V–fluorescein isothiocyanate/and 7AAD (BD Pharmingen, San Diego, CA, USA), and the samples were prepared following the specifications given by manufacturer. The population of apoptotic cells was analyzed by flow cytometry using a FACS Calibur cytometer and Cell Quest computer software (Becton Dickinson, Heidelberg, Germany).

In data set [10] the target is T3, Human recombinant HDAC-3/NcoR2. The following applies: read-out: HDAC Inhibition, IC50, HDAC3; cited from earlier work.
Data set [11] has as its target T1, Human recombinant N-ter-GST-HDAC-6. The following applies: read-out: HDAC Inhibition, IC50, HDAC6; profiles of reference HDACi; cited from earlier work.
Data set [12] addresses T4, Human recombinant C-terminal His-tag-HDAC8. Also noted: method as in PMID 21832257. The following applies: profiles of reference HDACi; read-out: HDAC Inhibition, IC50, HDAC8; cited from earlier work.
Data set [13] addresses T2, Human recombinant C-ter-His-FLAG-HDAC1. Also noted: method as in PMID 21832257. The following applies: profiles of reference HDACi; read-out: HDAC Inhibition, IC50, HDAC1; cited from earlier work.
In data set [14] the test system is intersegmental blood vessels (ISVs) of Tg(fli1:EGFP) zebrafish embryos. Put plainly: Anti-angiogenic activity in Tg(fli1:EGFP) zebrafish embryos. It counts as in vivo. To be noted: 8b 6.25-50 µM; Suten effective dose 1.56 µM. How it is done: The inhibitory activity of 8b on angiogenesis was examined using embryos of the transgenic zebrafish Tg(fli1:EGFP) line with GFP-labeled endothelial cells, as previously described. Briefly, embryos at the 6–8 hpf stage were exposed to three non-toxic concentrations and incubated at 28 °C by 48 hpf. At 48 hpf, the treated embryos were anesthetized with 0.02% tricaine, imaged under a fluorescence microscope (Olympus BX51, Applied Imaging Corp., San Jose, CA, USA), and analyzed for the development of intersegmental blood vessels (ISVs). The experiment was performed three times using ten embryos per concentration. ISV lengths were measured using ImageJ program, and expressed as mean value with standard deviation. Inhibitory effect of the applied treatment was determined in relation to the control (DMSO-treated) group, arbitrarily set to 100%.

Data set [15] has as its system MDA-MB-231 cells. Put plainly: Cell cycle analysis, propidium iodide flow cytometry. To be noted: 72 h. Type of data set: cell-based, human. On the procedure: MDA-MB-231 cells were treated with tested compounds for specified time courses. After treatment, examined cells were washed in cold PBS and incubated for 30 min in 96% ethanol on ice, centrifuged, and incubated with 80 μL RNase A ([…]) and 50 μL propidium iodide (50 μg/mL) for 30 min at 37 °C. The cell cycle was analyzed by FACS Calibur E440 (Becton Dickinson) flow cytometer and Cell Quest software. Results are presented as a percentage of cell cycle phases.

Where [16] appears, read: 5 μM, mean ± standard error of triplicate.

T2 sequence (Q13547 whole entry): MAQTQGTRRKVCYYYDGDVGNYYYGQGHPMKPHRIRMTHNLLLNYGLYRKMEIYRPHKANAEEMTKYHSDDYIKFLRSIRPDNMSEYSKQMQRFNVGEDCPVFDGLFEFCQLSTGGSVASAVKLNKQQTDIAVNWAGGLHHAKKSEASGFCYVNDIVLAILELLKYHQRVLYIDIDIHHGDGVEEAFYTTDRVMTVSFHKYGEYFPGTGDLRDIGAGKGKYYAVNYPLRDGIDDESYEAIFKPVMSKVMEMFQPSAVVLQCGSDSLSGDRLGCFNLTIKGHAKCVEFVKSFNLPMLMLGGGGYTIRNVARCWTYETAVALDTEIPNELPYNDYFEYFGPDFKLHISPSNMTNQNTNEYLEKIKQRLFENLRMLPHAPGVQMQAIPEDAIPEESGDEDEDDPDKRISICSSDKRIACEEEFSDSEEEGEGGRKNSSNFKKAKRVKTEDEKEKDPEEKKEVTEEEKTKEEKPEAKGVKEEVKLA

For the compound `O=C(NO)c1cnc(NC2(c3ccccc3)CCC(F)(F)CC2)nc1` [ACY-1083], the IC50 in data set [1] was 0.003 µM.

`O=C(CCN1CCN(C(c2ccccc2)c2ccccc2)CC1)NO` [Compound 3b, 3-(4-(diphenylmethyl)-piperazin-1-yl)-N-hydroxypropionamide]: the inhibition at 5 µM in data set [2] (setting [16]) was less than 25%.

Consider `O=C(CCCCN1CCN(C(c2ccccc2)c2ccccc2)CC1)NO` [Compound 5b, 5-(4-(diphenylmethyl)-piperazin-1-yl)-N-hydroxypentanamide], for which the inhibition at 5 µM in data set [2] (setting [16]) was less than 25%.

Regarding `O=C(CCCCCN1CCN(C(c2ccccc2)c2ccccc2)CC1)NO` [Compound 6b, 6-(4-(diphenylmethyl)-piperazin-1-yl)-N-hydroxyhexanamide], the IC50 in data set [3] is 4.73 ± 0.67 µM; in data set [4], 1.86 ± 0.09 µM; in data set [2] (mean ± SD of three independent experiments, read-out: HDAC Inhibition, IC50 ± SD, HDAC6), 0.186 ± 0.005 µM; in data set [5], 2.44 ± 0.51 µM; in data set [7], 33.4 ± 2.79 µM; in [8], 84 ± 5.2 µM. In addition, the “% HDAC6 Inhibition at 5 μM” value in [2] (setting [16]) is given as 95.6 ± 0.9%. In addition, the inhibition at 5 µM in [2] (setting [16]) was greater than 90%. For the same compound, the “Selectivity Ratio HDAC1/6” value in data set [2] (ratio of IC50 values) came out at 25.4. Moreover, in data set [2] (ratio of IC50 values), the “Selectivity Ratio HDAC3/6” value was 10. Besides, the “Selectivity Ratio HDAC8/6” value in [2] (ratio of IC50 values) was determined as 13.1. Besides, the tumor sphere viability entry in [6] was “mild decrease”. The sphere formation result in [6] (co-culture 4 d, at higher concentrations) is given as “inhibit sphere formation to some extent”. For the same compound, the programmed cell death result in data set [9] (24 h) is recorded as “slight increase”. The early apoptotic cells entry in [9] (48 h) and in [9] (72 h) was “approximately 20%” each time.

For `CCCC(=O)[O-].[Na+]` [Sodium butyrate], the concentration for half-maximal inhibition (IC50) was 4.8 µM in [10], greater than 1000 µM in data set [11], 10.4 µM in [12] and 8.3 µM in data set [13].

As to `CCCC(CCC)C(=O)O` [Valproic acid], the results for the IC50 in data set [11] and in data set [13] were greater than 1000 µM and 660 µM, respectively.

With `CCN(CC)CCNC(=O)c1c(C)[nH]c(/C=C2\C(=O)Nc3ccc(F)cc32)c1C` [sunitinib-malate, reference compound], the “toxic response in embryos at anti-angiogenic effective doses” value in data set [14] is reported as “life-threatening pericardial edema”.

For the compound `CN1CCc2c(c3ccccc3n2Cc2ccc(C(=O)NO)cc2)C1` [tubastatin A, reference compound], the IC50 is […] in data set [1], 20.8 ± 2.84 µM in [7] and 93.3 ± 9.4 µM in [8]. Further, in [15], the sub-G1 phase cells entry is listed as “around 30%”. In [6], the tumor sphere viability result is “mild decrease”. Moreover, the “sphere formation and spheres viability” value in data set [6] (co-culture 50 μM, 4 d in sphere culture conditions) is “significantly inhibited”.
